This note sets out measurements from patent US11053226B2, “KRAS G12C inhibitors and methods of using the same” (Amgen Inc., priority 2018, dated 2021).

The structures appear in SMILES notation.

Usually IC50 stands for the concentration that gives 50% inhibition.

Chain of GDP-bound KRAS protein (aa 1-169), containing both G12C and C118A amino acid substitutions (P01116 other isoform, or with tags, fused parts or gaps G12C/C118A): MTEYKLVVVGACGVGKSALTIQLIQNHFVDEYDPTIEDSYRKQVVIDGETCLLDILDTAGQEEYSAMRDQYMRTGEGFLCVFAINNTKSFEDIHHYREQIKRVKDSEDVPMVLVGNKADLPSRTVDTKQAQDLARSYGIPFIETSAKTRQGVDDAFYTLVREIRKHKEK

The target of one assay is GDP-bound KRAS protein (aa 1-169), containing both G12C and C118A amino acid substitutions (Homo sapiens (Human), UniProt P01116, C118A/G12C). The assay is described as follows: Coupled Nucleotide Exchange Assay. It is filed as biochemical. The following applies: read-out: Coupled Exchange IC50 (5 min); 5 min compound pre-incubation. The procedure: For compounds in Table 9, the following assay conditions were employed:
Coupled Nucleotide Exchange Assay:
The assay plates were then read on a PerkinElmer EnVision Multilabel Reader, using AlphaScreen® technology, and data were analyzed using a 4-parameter logistic model to calculate IC50 values.
For the compound `C=CC(=O)N1CC(NC(=O)Cn2cc(-c3ccccc3-c3ccccc3)c3cc(Cl)ccc32)C1` [Example 112], the IC50 was found to be 3.95 µM.

In the case of `C=CC(=O)N1CC(NC(=O)Cn2c(C)c(-c3ccccc3C)c3cc(Cl)ccc32)C1` [Example 121], the half-inhibitory concentration (IC50) amounted to 12.4 µM.

In the case of `C=CC(=O)N1CC(NC(=O)Cn2cc(I)c3cc([N+](=O)[O-])ccc32)C1` [Example 128], the IC50 was above 250 µM.

In the case of `C=CC(=O)N1CC(NC(=O)Cn2cc(I)c3cc(Cl)ccc32)C1` [Example 139], the IC50 was above 250 µM.

The assay is the same for the next values; noted with them: read-out: Coupled Exchange IC50 (2 h); 2 h compound pre-incubation.
Take `C=CC(=O)N1CC(NC(=O)Cn2cc(I)c3cc(Br)c(C)cc32)C1` [Example 95]: the IC50 worked out at 5.79 µM.

For the compound `C=CC(=O)N1CC(NC(=O)Cn2c(C)c(-c3ccccc3N(C)C)c3cc(Cl)ccc32)C1` [Example 98], the IC50 worked out at 1.12 µM.

On to `C=CC(=O)N1CC(NC(=O)Cn2c(C)c(-c3cccc4nc(C)ccc34)c3cc(Cl)ccc32)C1` [Example 101], for which the IC50 was 1.11 µM.

Regarding `C=CC(=O)N1CC(NC(=O)Cn2c3c(c4cc(Br)ccc42)CCCCC3)C1` [Example 102], the IC50 was determined as 4.9 µM.

With `C=CC(=O)N1CC(NC(=O)Cn2cc(-c3cccnc3OC(C)C)c3cc(Br)ccc32)C1` [Example 105], the IC50 was found to be 6.45 µM.

Regarding `C=CC(=O)N1CC(N(C)C(=O)Cn2cc(C(=O)N3CCc4c(cccc4OC)C3)c3cc(Br)ccc32)C1` [Example 107], the IC50 was 0.59 µM.

For `C=CC(=O)N1CC(NC(=O)Cn2cc(-c3cccc4ccccc34)c3cc(Br)cc(C)c32)C1` [Example 110], the IC50 was found to be 4.39 µM.

With `C=CC(=O)N1CC(NC(=O)Cn2c(C(=O)OC)c(I)c3cc(Br)ccc32)C1` [Example 111], the IC50 worked out at 1.98 µM.

For `C=CC(=O)N1CC(NC(=O)Cn2cc(-c3ccccc3-c3ccccc3)c3cc(Cl)ccc32)C1` [Example 112], the IC50 was 2.36 µM.

In the case of `C=CC(=O)N1CC(NC(=O)Cn2c(C)c(-c3ccccc3OC(C)C)c3cc(Cl)ccc32)C1` [Example 113], the IC50 was 0.9 µM.

Turning to `C=CC(=O)N1CC(NC(=O)Cn2c(C)c(-c3cccnc3OC(C)C)c3cc(Br)ccc32)C1` [Example 115], the IC50 turned out to be 2.78 µM.

As for `C=CC(=O)N1CC(NC(=O)Cn2c3ccccc3c3c(Br)cccc32)C1` [Example 117], the half-maximal inhibitory concentration (IC50) is 2.05 µM.

Turning to `C=CC(=O)N1CC(NC(=O)Cn2cc(-c3ccccc3C(C)C)c3cc(Br)cc(C)c32)C1` [Example 119], the IC50 worked out at 1.71 µM.

Regarding `C=CC(=O)N1CC(NC(=O)Cn2c(C)c(-c3ccccc3C)c3cc(Cl)ccc32)C1` [Example 121], the IC50 was found to be 1.57 µM.

Regarding `C=CC(=O)N1CC(NC(=O)Cn2cc(C(=O)N3CCc4ccc(C)cc4C3)c3cc(Br)ccc32)C1` [Example 122], the IC50 stood at 0.69 µM.

As for `C=CC(=O)N1CC(NC(=O)Cn2cc(I)c3cc([N+](=O)[O-])ccc32)C1` [Example 128], the IC50 came out at 7.24 µM.

Regarding `C=CC(=O)N1CC(NC(=O)Cn2cc(I)c3cc(Cl)ccc32)C1` [Example 139], the IC50 came to 4.15 µM.

Staying with this assay, now noted: read-out: Coupled Exchange IC50 (20 h); 20 h compound pre-incubation.
Consider `C=CC(=O)N1CC(NC(=O)Cn2cc(I)c3cc(Br)c(C)cc32)C1` [Example 95], for which the concentration for half-maximal inhibition (IC50) amounted to 1.09 µM.

Regarding `C=CC(=O)N1CC(NC(=O)Cn2c3c(c4cc(Br)ccc42)CCCCC3)C1` [Example 102], the IC50 was determined as 0.9 µM.

In the case of `C=CC(=O)N1CC(N(C)C(=O)Cn2cc(C(=O)N3CCc4c(cccc4OC)C3)c3cc(Br)ccc32)C1` [Example 107], the IC50 was found to be 0.18 µM.

For `C=CC(=O)N1CC(NC(=O)Cn2cc(-c3cccc4ccccc34)c3cc(Br)cc(C)c32)C1` [Example 110], the IC50 turned out to be 1.2 µM.

Regarding `C=CC(=O)N1CC(NC(=O)Cn2c(C(=O)OC)c(I)c3cc(Br)ccc32)C1` [Example 111], the IC50 was 0.35 µM.

Regarding `C=CC(=O)N1CC(NC(=O)Cn2cc(-c3ccccc3-c3ccccc3)c3cc(Cl)ccc32)C1` [Example 112], the 50% inhibitory concentration (IC50) turned out to be 0.71 µM.

`C=CC(=O)N1CC(NC(=O)Cn2c3ccccc3c3c(Br)cccc32)C1` [Example 117]: the IC50 came out at 0.43 µM.

As to `C=CC(=O)N1CC(NC(=O)Cn2cc(-c3ccccc3C(C)C)c3cc(Br)cc(C)c32)C1` [Example 119], the IC50 is 0.39 µM.

Turning to `C=CC(=O)N1CC(NC(=O)Cn2c(C)c(-c3ccccc3C)c3cc(Cl)ccc32)C1` [Example 121], the IC50 was 0.42 µM.

With `C=CC(=O)N1CC(NC(=O)Cn2cc(C(=O)N3CCc4ccc(C)cc4C3)c3cc(Br)ccc32)C1` [Example 122], the IC50 worked out at 0.17 µM.

Regarding `C=CC(=O)N1CC(NC(=O)Cn2cc(I)c3cc([N+](=O)[O-])ccc32)C1` [Example 128], the half-inhibitory concentration (IC50) came out at 1.18 µM.

Regarding `C=CC(=O)N1CC(NC(=O)Cn2cc(I)c3cc(Cl)ccc32)C1` [Example 139], the IC50 was 0.52 µM.

The test system of another assay is Phosphorylation of ERK1/2 in MIA PaCa-2 cells. The assay is described as follows: Phospho-ERK1/2 MSD Assay. It is filed as cell-based. The following applies: Homo sapiens, MIA PaCa-2, 4 h, read-out: pERK IC50 (4 h, MiaPaCa-2), 4 h compound treatment; MiaPaCa-2 cells.
As to `C=CC(=O)N1CC(N(C)C(=O)Cn2cc(C(=O)N3CCc4c(cccc4OC)C3)c3cc(Br)ccc32)C1` [Example 107], the IC50 was determined as 23.1 µM.

As for `C=CC(=O)N1CC(NC(=O)Cn2cc(C(=O)N3CCc4ccc(C)cc4C3)c3cc(Br)ccc32)C1` [Example 122], the IC50 turned out to be 31.4 µM.

Staying with this assay, now noted: Homo sapiens, MIA PaCa-2, read-out: pERK IC50 (4 h); 4 h compound treatment; MiaPaCa-2 cells.
For `C=CC(=O)N1CC(NC(=O)Cn2cc(I)c3cc(Br)c(C)cc32)C1` [Example 95], the IC50 came out at 16.7 µM.

Turning to `C=CC(=O)N1CC(NC(=O)Cn2c(C)c(-c3ccccc3N(C)C)c3cc(Cl)ccc32)C1` [Example 98], the IC50 came to 18.2 µM.

On to `C=CC(=O)N1CC(NC(=O)Cn2c(C)c(-c3cccc4nc(C)ccc34)c3cc(Cl)ccc32)C1` [Example 101], for which the concentration for half-maximal inhibition (IC50) turned out to be 20.3 µM.

Consider `C=CC(=O)N1CC(NC(=O)Cn2c3c(c4cc(Br)ccc42)CCCCC3)C1` [Example 102], for which the IC50 was found to be 21.2 µM.

Take `C=CC(=O)N1CC(NC(=O)Cn2cc(-c3cccnc3OC(C)C)c3cc(Br)ccc32)C1` [Example 105]: the IC50 was found to be 22 µM.

In the case of `C=CC(=O)N1CC(NC(=O)Cn2cc(-c3cccc4ccccc34)c3cc(Br)cc(C)c32)C1` [Example 110], the IC50 came out at 24.9 µM.

On to `C=CC(=O)N1CC(NC(=O)Cn2c(C(=O)OC)c(I)c3cc(Br)ccc32)C1` [Example 111], for which the half-maximal inhibitory concentration (IC50) was found to be 25.4 µM.

`C=CC(=O)N1CC(NC(=O)Cn2cc(-c3ccccc3-c3ccccc3)c3cc(Cl)ccc32)C1` [Example 112]: the IC50 worked out at 25.9 µM.

On to `C=CC(=O)N1CC(NC(=O)Cn2c(C)c(-c3ccccc3OC(C)C)c3cc(Cl)ccc32)C1` [Example 113], for which the IC50 stood at 26.2 µM.

With `C=CC(=O)N1CC(NC(=O)Cn2c(C)c(-c3cccnc3OC(C)C)c3cc(Br)ccc32)C1` [Example 115], the IC50 amounted to 28.1 µM.

As for `C=CC(=O)N1CC(NC(=O)Cn2c3ccccc3c3c(Br)cccc32)C1` [Example 117], the IC50 is 29.6 µM.

With `C=CC(=O)N1CC(NC(=O)Cn2cc(-c3ccccc3C(C)C)c3cc(Br)cc(C)c32)C1` [Example 119], the IC50 was 30.6 µM.

With `C=CC(=O)N1CC(NC(=O)Cn2c(C)c(-c3ccccc3C)c3cc(Cl)ccc32)C1` [Example 121], the IC50 is 31.2 µM.

Turning to `C=CC(=O)N1CC(NC(=O)Cn2cc(I)c3cc([N+](=O)[O-])ccc32)C1` [Example 128], the concentration for half-maximal inhibition (IC50) was determined as 35.6 µM.

Take `C=CC(=O)N1CC(NC(=O)Cn2cc(I)c3cc(Cl)ccc32)C1` [Example 139]: the IC50 worked out at 40.6 µM.

The subject of the next assay is Phosphorylation of ERK1/2 in A549 cells. Description: Phospho-ERK1/2 MSD Assay (A549). It is filed as cell-based. Particulars: Homo sapiens, A549, 4 h, read-out: pERK IC50 (4 h, A549), 4 h compound treatment.
As to `C=CC(=O)N1CC(N(C)C(=O)Cn2cc(C(=O)N3CCc4c(cccc4OC)C3)c3cc(Br)ccc32)C1` [Example 107], the IC50 was above 100 µM.

As to `C=CC(=O)N1CC(NC(=O)Cn2cc(C(=O)N3CCc4ccc(C)cc4C3)c3cc(Br)ccc32)C1` [Example 122], the IC50 was above 100 µM.

The assay is the same for the next values; noted with them: Homo sapiens, read-out: pERK IC50 (4 h), 4 h compound treatment.
Take `C=CC(=O)N1CC(NC(=O)Cn2cc(I)c3cc(Br)c(C)cc32)C1` [Example 95]: the IC50 was above 100 µM.

Consider `C=CC(=O)N1CC(NC(=O)Cn2c(C)c(-c3ccccc3N(C)C)c3cc(Cl)ccc32)C1` [Example 98], for which the IC50 was 13.2 µM.

Take `C=CC(=O)N1CC(NC(=O)Cn2c(C)c(-c3cccc4nc(C)ccc34)c3cc(Cl)ccc32)C1` [Example 101]: the IC50 was found to be 56.8 µM.

On to `C=CC(=O)N1CC(NC(=O)Cn2c3c(c4cc(Br)ccc42)CCCCC3)C1` [Example 102], for which the IC50 was above 100 µM.

With `C=CC(=O)N1CC(NC(=O)Cn2cc(-c3cccnc3OC(C)C)c3cc(Br)ccc32)C1` [Example 105], the IC50 worked out at 11.3 µM.

`C=CC(=O)N1CC(NC(=O)Cn2cc(-c3cccc4ccccc34)c3cc(Br)cc(C)c32)C1` [Example 110]: the IC50 amounted to 42.1 µM.

`C=CC(=O)N1CC(NC(=O)Cn2c(C(=O)OC)c(I)c3cc(Br)ccc32)C1` [Example 111]: the half-inhibitory concentration (IC50) was above 100 µM.

Take `C=CC(=O)N1CC(NC(=O)Cn2cc(-c3ccccc3-c3ccccc3)c3cc(Cl)ccc32)C1` [Example 112]: the IC50 was above 100 µM.

`C=CC(=O)N1CC(NC(=O)Cn2c(C)c(-c3ccccc3OC(C)C)c3cc(Cl)ccc32)C1` [Example 113]: the IC50 is above 100 µM.

`C=CC(=O)N1CC(NC(=O)Cn2c(C)c(-c3cccnc3OC(C)C)c3cc(Br)ccc32)C1` [Example 115]: the half-inhibitory concentration (IC50) was above 100 µM.

Consider `C=CC(=O)N1CC(NC(=O)Cn2c3ccccc3c3c(Br)cccc32)C1` [Example 117], for which the IC50 is above 100 µM.

Regarding `C=CC(=O)N1CC(NC(=O)Cn2cc(-c3ccccc3C(C)C)c3cc(Br)cc(C)c32)C1` [Example 119], the IC50 is above 100 µM.

As to `C=CC(=O)N1CC(NC(=O)Cn2c(C)c(-c3ccccc3C)c3cc(Cl)ccc32)C1` [Example 121], the IC50 is above 100 µM.

On to `C=CC(=O)N1CC(NC(=O)Cn2cc(I)c3cc([N+](=O)[O-])ccc32)C1` [Example 128], for which the IC50 is above 100 µM.

In the case of `C=CC(=O)N1CC(NC(=O)Cn2cc(I)c3cc(Cl)ccc32)C1` [Example 139], the IC50 is above 100 µM.
